For test [1], the system named is VEGFR2. The following applies: cited from earlier work; for pIC50: read-out: IC50 for VEGFR2 (KDR).
Test [2] deals with U87. It is filed as cell-based, human.
Test [3] concerns HepG2-luc. Format: cell-based, human.
The test system of test [4] is HuH7. Format: cell-based, human.
The subject of test [5] is SPC111. Briefly: combination with HSV1716, Chou-Talalay, SPC111. It is filed as cell-based, human. The note with it: SPC111, HSV1716 moi 0.5 and 0.05, 72 hours.
Test [6] has as its system SKOV3. It is filed as cell-based, human.
Test [7] concerns Virttu cell panel. As to the kind of experiment: combination with HSV1716, DCP cell death, Chou-Talalay analysis, cell panel. Format: cell-based, human.
Test [8] deals with One58. Format: cell-based, human.
In test [9] the test system is UVW. Format: cell-based, human.
Test [10] relates to HSV1716gfp. Briefly: GFP expression during infection with HSV1716gfp (drug toxicity to virus). Format: cell-based, herpes simplex virus.
The test system of test [11] is Virttu cell line panel. Briefly: cells. It is filed as cell-based. The following applies: Homo sapiens; most/all cell lines of panel, 72 hrs; read-out: IC50 (DCP leakage), range over cell lines.
The subject of test [12] is CP70. Format: cell-based, human.
The subject of test [13] is Ovcar3. It is filed as cell-based, human.
Test [14] relates to Hep3B. Format: cell-based, human.
Test [15] has as its target PDGFRβ (Homo sapiens, UniProt P09619). The note with it: cited from earlier work.
Test [16] has as its target c-Met (Homo sapiens, UniProt P08581). The following applies: cited from earlier work.
Test [17] concerns PARP. Briefly: PARP cleavage by Western blotting. The following applies: in combination with HSV1716. It is filed as cell-based, human.

pIC50, pKi: −log10 of the molar value. “Also recorded” adds a separate entry of the source. Structures can show the parent of a compound that is named as a salt.

Chain of PDGFRβ (P09619 33-1106): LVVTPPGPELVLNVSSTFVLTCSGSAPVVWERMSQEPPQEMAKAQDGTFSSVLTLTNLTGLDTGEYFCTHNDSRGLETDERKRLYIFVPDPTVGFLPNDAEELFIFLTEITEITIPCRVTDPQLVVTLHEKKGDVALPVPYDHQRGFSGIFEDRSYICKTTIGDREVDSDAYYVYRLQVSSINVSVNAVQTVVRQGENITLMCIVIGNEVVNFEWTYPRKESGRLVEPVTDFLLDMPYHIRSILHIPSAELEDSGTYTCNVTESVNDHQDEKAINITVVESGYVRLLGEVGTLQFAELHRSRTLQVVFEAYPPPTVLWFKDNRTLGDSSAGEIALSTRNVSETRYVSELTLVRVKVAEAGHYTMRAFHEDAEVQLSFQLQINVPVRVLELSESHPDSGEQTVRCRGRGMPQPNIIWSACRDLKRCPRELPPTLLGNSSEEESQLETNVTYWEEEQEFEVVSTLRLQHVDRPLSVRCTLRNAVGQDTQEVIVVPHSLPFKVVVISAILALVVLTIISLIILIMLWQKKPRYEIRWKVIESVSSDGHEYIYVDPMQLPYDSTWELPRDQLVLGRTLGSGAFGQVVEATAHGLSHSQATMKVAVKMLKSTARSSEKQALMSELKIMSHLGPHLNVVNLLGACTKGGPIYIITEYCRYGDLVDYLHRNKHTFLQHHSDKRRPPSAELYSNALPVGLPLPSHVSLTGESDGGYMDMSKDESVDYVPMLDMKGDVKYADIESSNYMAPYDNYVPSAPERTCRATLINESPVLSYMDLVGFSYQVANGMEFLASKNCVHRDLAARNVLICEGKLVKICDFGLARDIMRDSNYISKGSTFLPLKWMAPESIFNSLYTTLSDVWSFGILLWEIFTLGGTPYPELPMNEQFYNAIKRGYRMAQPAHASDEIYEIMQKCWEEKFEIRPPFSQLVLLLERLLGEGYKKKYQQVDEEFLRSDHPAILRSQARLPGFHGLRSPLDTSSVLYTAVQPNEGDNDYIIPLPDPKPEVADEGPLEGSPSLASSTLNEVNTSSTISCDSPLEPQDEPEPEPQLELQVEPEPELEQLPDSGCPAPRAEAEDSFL
Chain of c-Met (P08581 25-1390): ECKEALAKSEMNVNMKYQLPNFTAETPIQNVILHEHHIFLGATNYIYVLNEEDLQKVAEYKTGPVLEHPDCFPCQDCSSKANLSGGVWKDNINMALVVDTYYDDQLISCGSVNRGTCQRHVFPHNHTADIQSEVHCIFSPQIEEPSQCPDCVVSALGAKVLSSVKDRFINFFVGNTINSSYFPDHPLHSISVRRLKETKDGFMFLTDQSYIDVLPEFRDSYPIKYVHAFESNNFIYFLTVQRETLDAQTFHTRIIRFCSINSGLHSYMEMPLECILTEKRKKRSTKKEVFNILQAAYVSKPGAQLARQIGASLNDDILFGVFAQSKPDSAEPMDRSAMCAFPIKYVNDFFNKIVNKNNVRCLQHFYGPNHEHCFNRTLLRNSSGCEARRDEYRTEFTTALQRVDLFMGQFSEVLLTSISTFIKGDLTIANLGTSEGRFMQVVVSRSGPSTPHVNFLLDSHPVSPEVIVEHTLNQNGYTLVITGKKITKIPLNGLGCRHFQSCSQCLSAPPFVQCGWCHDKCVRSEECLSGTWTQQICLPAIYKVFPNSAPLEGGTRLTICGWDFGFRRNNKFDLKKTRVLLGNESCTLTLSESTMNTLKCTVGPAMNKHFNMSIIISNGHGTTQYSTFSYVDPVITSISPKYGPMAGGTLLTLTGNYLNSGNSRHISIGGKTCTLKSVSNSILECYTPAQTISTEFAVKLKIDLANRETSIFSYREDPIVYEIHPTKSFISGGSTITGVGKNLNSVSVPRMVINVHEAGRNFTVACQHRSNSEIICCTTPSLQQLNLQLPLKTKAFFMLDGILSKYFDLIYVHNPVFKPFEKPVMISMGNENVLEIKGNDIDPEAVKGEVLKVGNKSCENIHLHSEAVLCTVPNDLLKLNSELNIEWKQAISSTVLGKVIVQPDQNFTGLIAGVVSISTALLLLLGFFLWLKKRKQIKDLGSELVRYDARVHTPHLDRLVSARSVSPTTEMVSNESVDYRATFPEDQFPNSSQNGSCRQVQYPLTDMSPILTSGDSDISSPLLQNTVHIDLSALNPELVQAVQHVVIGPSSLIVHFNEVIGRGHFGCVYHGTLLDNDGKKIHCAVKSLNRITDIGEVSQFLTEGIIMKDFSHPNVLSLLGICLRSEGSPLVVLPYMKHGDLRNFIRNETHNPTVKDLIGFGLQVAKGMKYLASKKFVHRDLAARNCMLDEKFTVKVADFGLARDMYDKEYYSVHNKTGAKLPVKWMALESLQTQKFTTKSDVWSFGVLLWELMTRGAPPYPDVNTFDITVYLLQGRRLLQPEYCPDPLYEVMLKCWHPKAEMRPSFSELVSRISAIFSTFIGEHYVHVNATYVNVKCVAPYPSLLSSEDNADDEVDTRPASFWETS

Regarding `CCN1CCN(Cc2ccc(-c3cc4c(N[C@H](C)c5ccccc5)ncnc4[nH]3)cc2)CC1` [AEE788, 6-[4-[(4-Ethylpiperazin-1-yl)methyl]phenyl]-N-[(1R)-1-phenylethyl]-7H-pyrrolo[2,3-d]pyrimidin-4-amine], the pIC50 in test [1] is 7.11.
In the case of `N#CC1(c2ccc(NC(=O)c3cccnc3NCc3ccncc3)cc2)CCCC1` [Apatinib, N-[4-(1-cyanocyclopentyl)phenyl-2-(4-picolyl)amino-3-Nicotinamide methanesulphonate], in test [1], the pIC50 was 8.63.
As for `Nc1nccc(Oc2ccc(NC(=O)c3c[nH]cc(-c4ccc(F)cc4)c3=O)cc2F)c1Cl` [BMS 794833, N-(4-((2-amino-3-chloropyridin-4-yl)oxy)-3-fluorophenyl)-5-(4-fluorophenyl)-4-oxo-1,4-dihydropyridine-3-carboxamide], the pIC50 in [1] is 7.82.
Regarding `COc1cc2c(Oc3ccc4[nH]c(C)cc4c3F)ncnc2cc1OCCCN1CCCC1` [Cediranib, 4-[(4-fluoro-2-methyl-1H-indol-5-yl)oxy]-6-methoxy-7-[3-(pyrrolidin-1-yl)propoxy]quinazoline], in [1], the pIC50 was 9.30.
With `C[C@@H](Oc1cc(-c2cnn(C3CCNCC3)c2)cnc1N)c1c(Cl)ccc(F)c1Cl` [Crizotinib, 3-[(1R)-1-(2,6-dichloro-3-fluorophenyl)ethoxy]-5-(1-piperidin-4-ylpyrazol-4-yl)pyridin-2-amine], the “synergy/antagonism with HSV1716 on cell death (Chou-Talalay)” value (“synergy/antagonism … (Chou-Talalay)” for short) was “strongly synergistic” in test [2]; “synergistic” in [3]; “some limited synergy” in test [4]; “some limited synergy” in test [5]; “some limited synergy” in test [6]; “antagonistic” in [8]. Also, the results for the “synergy/antagonism … (Chou-Talalay)” value in test [9], in test [12] and in test [13] were “strongly synergistic”, “strongly synergistic” and “some limited synergy”, respectively. In addition, in [7], the “number of cell lines in which moi 0.05 generated synergy” value is on record as 8 of the 9. The “number of cell lines in which moi 0.5 generated synergy” value in test [7] is on record as 3 of the 9. Moreover, the “effect on GFP expression during HSV1716gfp infection” value (from here on “effect”) in [10] (CP70, moi 0.5 and 0.05, 72 hrs) was “increased GFP expression”; in test [10] (Hep3B, moi 0.5 and 0.05, 72 hrs) it was “decreased GFP expression”; in test [10] (HepG2-luc, both moi (0.5 and 0.05), 72 hrs), “little effect on GFP expression”; in [10] (HuH7, moi 0.5 and 0.05, 72 hrs), “decreased GFP expression”; in test [10] (One58, moi 0.5 and 0.05, 72 hrs) it was “increased GFP expression”; in [10] (Ovcar3, moi 0.5 and 0.05, all drug doses, 72 hrs) it was “little effect on GFP expression”. Further, the “effect” value in [10] (SPC-111, moi 0.5 and 0.05, all drug doses, 72 hrs) was “little effect on GFP expression”; in test [10] (Skov3, moi 0.5 and 0.05, all drug doses, 72 hrs), “little effect on GFP expression”; in test [10] (U87, moi 0.5 and 0.05, 72 hrs), “increased GFP expression”; in test [10] (UVW, moi 0.5 and 0.05, 72 hrs), “decreased GFP expression”. Besides, the pIC50 in test [11] was 4.52 to 5.70.
In the case of `COc1cc2ncnc(Nc3ccc(F)c(Cl)c3)c2cc1OCCCN1CCOCC1` [Gefitinib, N-(3-chloro-4-fluoro-phenyl)-7-methoxy-6-(3-morpholin-4-ylpropoxy)quinazolin-4-amine], the “synergy/antagonism … (Chou-Talalay)” value in test [14] is on record as “Synergy”. Further, the “overall synergy/antagonism with HSV1716 on cell death” value in test [7] is “antagonistic with HSV1716 in all cell lines; also recorded: mostly antagonistic”.
On to `CCCNC(=O)Nc1ccc(Oc2ncnc3cc(OC)c(OC)cc23)cc1Cl` [KRN 633, N-[2-Chloro-4-[(6,7-dimethoxy-4-quinazolinyl)oxy]phenyl]-N′-propylurea], for which the pIC50 is 5.01 in [15] and 6.80 in [1].
On to `CN(C[C@@H]1COCCO1)S(=O)(=O)Nc1ccc2ccc3ncc(-c4cnn(C)c4)cc3c(=O)c2c1` [MK-2461, N-((2R)-1,4-Dioxan-2-ylmethyl)-N-methyl-N′-[3-(1-methyl-1H-pyrazol-4-yl)-5-oxo-5H-benzo[4,5]cyclohepta[1,2-b]pyridin-7-yl]sulfamide], for which the pIC50 is 7.66 in test [15] and 8.60 in test [16].
With `CCN(CC)CCNC(=O)c1c(C)[nH]c(/C=C2\C(=O)Nc3ccc(F)cc32)c1C` [Sunitinib, N-(2-diethylaminoethyl)-5-[(Z)-(5-fluoro-2-oxo-1H-indol-3-ylidene)methyl]-2,4-dimethyl-1H-pyrrole-3-carboxamide], the “synergy/antagonism … (Chou-Talalay)” value in [2] was “strongly synergistic”; in test [3] it was “strongly synergistic”; in test [5] it was “strongly synergistic”; in test [6], “some evidence of synergy”; in [8] it was “strongly synergistic”; in test [9], “antagonistic”. In test [12], the “synergy/antagonism … (Chou-Talalay)” value is on record as “strongly synergistic”. Further, the “number of cell lines in which moi 0.05 generated synergy” value in test [7] is on record as 9 of the 10. Besides, the “number of cell lines in which moi 0.5 generated synergy” value in test [7] is 7 of the 10. For the same compound, the “number of cell lines tested with clear synergy signals / synergism with HSV1716” value in [7] is 9 of the 10. The “effect” value in test [10] (CP70, moi 0.05, 72 hrs) is listed as “more pronounced”; in test [10] (SPC111, moi 0.05, 72 hrs), “more pronounced”; in [10] (all 9 cell lines tested, moi 0.5 and moi 0.05, 72 hours) it was “increased GFP expression”. For the same compound, the “PARP cleavage (executioner phase of apoptosis)” value in [17] (Hep3B cells) and in test [17] (Ovcar3 cells) was “PARP cleavage demonstrated by Western blotting” throughout. Besides, the pIC50 in test [11] was 4.82 to 6.30.
As for `Cc1[nH]c(/C=C2\C(=O)Nc3ccccc32)c(C)c1CCC(=O)O` [TSU-68, (Z)-3-(2,4-dimethyl-5-((2-oxoindolin-3-ylidene)methyl)-1H-pyrrol-3-yl)propanoic acid], the pKi in test [15] (read-out: Ki for PDGFRβ) is 8.10; in test [1] (read-out: Ki for VEGFR2 (Flk-1/KDR)), 5.68.
Turning to `Cc1cc(F)c(Nc2ncnc3cc(OCc4ccccc4)ccc23)cc1O` [ZM 323881 HCl, 5-((7-Benzyloxyquinazolin-4-yl)amino)-4-fluoro-2-methylphenol hydrochloride], the pIC50 in [1] was more than 8.70.
On to “N-(2-fluoro-4-((2-(4-(4-methylpiperazin-1-yl)piperidine-1-carboxamido)pyridin-4-yl)oxy)phenyl)-N-(4-fluorophenyl)cyclopropane-1,1-dicarboxamide [Golvatinib]”, for which the values for the pIC50 in test [16] and in [1] were 7.85 and 7.80, respectively.

By pIC50 is commonly meant the negative decadic logarithm of the IC50, by convention in mol/L.
